In data set [1] the target is Dihydroorotate dehydrogenase (quinone), mitochondrial (Homo sapiens, UniProt Q02127). Put plainly: Inhibition of human DHODH.
A further data set deals with HaCaT. The data set is described as follows: Antiproliferative activity against human HaCaT cells assessed as inhibition of cell proliferation. The format is cell-based.
A short description of data set [2]: Lipophilicity, log D of compound at pH 7.4 in octanol/phosphate buffer measured by shake flask method. The class given is physicochemical.

Chain of Dihydroorotate dehydrogenase (quinone), mitochondrial (Q02127 whole entry): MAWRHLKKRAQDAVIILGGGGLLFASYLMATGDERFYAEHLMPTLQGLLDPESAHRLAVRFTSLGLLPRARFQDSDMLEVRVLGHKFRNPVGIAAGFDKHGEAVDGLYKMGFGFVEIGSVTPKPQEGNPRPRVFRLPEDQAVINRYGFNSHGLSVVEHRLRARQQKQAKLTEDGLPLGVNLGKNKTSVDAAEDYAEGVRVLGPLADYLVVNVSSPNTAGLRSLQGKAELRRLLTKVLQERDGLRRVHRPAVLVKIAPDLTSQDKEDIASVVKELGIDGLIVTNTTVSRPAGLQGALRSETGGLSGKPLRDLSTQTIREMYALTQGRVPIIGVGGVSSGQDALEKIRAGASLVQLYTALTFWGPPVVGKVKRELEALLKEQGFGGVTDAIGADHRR

As for `COc1cc(-c2cc(C(=O)O)c3ccccc3n2)ccc1OCC(=O)NCc1ccco1`, the IC50 (commonly the concentration that gives 50% inhibition) in data set [1] was 1000 nM; with HaCaT, greater than 300 µM. Further, the logD (in general, the decadic logarithm of the distribution of all forms, ionised or not, between an organic phase and buffer at a given pH) in data set [2] was -0.3.
Consider `COc1cc(-c2cc(C(=O)O)c3ccccc3n2)ccc1OCC(=O)Nc1cccc(C)c1`, for which the IC50 amounted to 1900 nM in data set [1] and 225 µM with HaCaT. Also, in data set [2], the logD stood at 1.5.
The like results for `COc1cc(-c2cc(C(=O)O)c3ccccc3n2)ccc1OCC(=O)Nc1ccc(C)cc1` were, in that order, 3800 nM, greater than 300 µM and 1.2.
Regarding `CCCCCCNC(=O)COc1ccc(-c2cc(C(=O)O)c3ccccc3n2)cc1OC`, the values for the IC50 (in data set [1]; in the data set with HaCaT) were 2700 nM and greater than 300 µM, respectively. The logD in data set [2] is 1.
In the same order, the values of `COc1cc(-c2cc(C(=O)O)c3ccccc3n2)ccc1OCC(=O)Nc1ccc(Cl)cc1` are 500 nM, greater than 300 µM and 1.5.
In the same order, the values of `COc1cc(-c2cc(C(=O)O)c3ccccc3n2)ccc1OCC(=O)Nc1ccc(F)cc1` are 1600 nM, 286 µM and 1.1.
For the compound `COc1cc(-c2cc(C(=O)O)c3ccccc3n2)ccc1OCC(=O)Nc1cccc(Cl)c1`, the IC50 worked out at 500 nM in data set [1] and 192 µM in the data set on HaCaT. Besides, in data set [2], the logD is 2.3.
Take `COc1cc(-c2cc(C(=O)O)c3ccccc3n2)ccc1OCC(=O)Nc1ccccc1Cl`: the IC50 in data set [1] is 1300 nM; in the data set with HaCaT it was 210 µM. The logD in data set [2] is 1.6.
On to `COc1cc(-c2cc(C(=O)O)c3ccccc3n2)ccc1OCC(=O)Nc1cccc(C(F)(F)F)c1`, for which the IC50 came to 500 nM in data set [1] and 160 µM in the data set on HaCaT. The compound also registered a logD in data set [2] of 1.3.
The like results for `COc1cc(-c2cc(C(=O)O)c3ccccc3n2)ccc1OCC(=O)NCc1cccnc1` were, in that order, 700 nM, greater than 300 µM and -0.8.
In the same order, the values of `COc1cc(-c2cc(C(=O)O)c3ccccc3n2)ccc1OCC(=O)Nc1ccccc1F` are 500 nM, 161 µM and 0.9.
For the compound `COc1cc(-c2cc(C(=O)O)c3ccccc3n2)ccc1OCC(=O)Nc1cccc(F)c1`, the IC50 in data set [1] was determined as 2100 nM; with HaCaT, 148 µM. The logD in data set [2] was 1.6.
Regarding `COc1cc(-c2cc(C(=O)O)c3ccccc3n2)ccc1OCC(=O)NC1CCCCC1`, the results for the IC50 (in data set [1]; with HaCaT) were 1700 nM and greater than 300 µM, respectively. The same compound had a logD in data set [2] of 0.8.
In the same order, the values of `COc1cc(-c2cc(C(=O)O)c3ccccc3n2)ccc1OCC(=O)Nc1ccccc1` are 3900 nM, greater than 300 µM and 0.7.
Take `COc1cc(-c2cc(C(=O)O)c3ccccc3n2)ccc1OCC(=O)NCc1cccs1`: the values for the half-inhibitory concentration (IC50) (in data set [1]; in the data set with HaCaT) were 3100 nM and greater than 300 µM, respectively. The compound further showed a logD in data set [2] of 0.
Consider `COc1cc(-c2cc(C(=O)O)c3ccccc3n2)ccc1OCC(=O)NC12CC3CC(CC(C3)C1)C2`, for which the IC50 in data set [1] was 1700 nM; in the data set on HaCaT, 180 µM. In data set [2], this compound came in with a logD of 1.
The like results for `COc1cc(-c2cc(C(=O)O)c3ccccc3n2)ccc1OCC(=O)Nc1ccc(C(F)(F)F)cc1` were, in that order, 2400 nM, 150 µM and 1.6.
With `COc1cc(-c2cc(C(=O)O)c3ccccc3n2)ccc1OCC(=O)Nc1ccccc1C`, the IC50 in data set [1] is 5900 nM; with HaCaT it was 230 µM. Also, the logD in data set [2] was determined as 0.8.
The like results for `COc1cc(-c2cc(C(=O)O)c3ccccc3n2)ccc1OCC(=O)Nc1ccccc1C(F)(F)F` were, in that order, 300 nM, 102 µM and 1.3.
As for `COc1cc(-c2cc(C(=O)O)c3ccccc3n2)ccc1OCC(=O)NCc1ccccc1`, the IC50 in data set [1] is 3700 nM; in the data set on HaCaT, greater than 300 µM. In data set [2], this compound returned a logD of 0.4.

(Values after ChEMBL document CHEMBL4811297, “Low cytotoxic quinoline-4-carboxylic acids derived from vanillin precursors as potential human dihydroorotate dehydrogenase inhibitors” (Bioorg Med Chem Lett, 2021).)
